US9321772B2, “Substituted pyrazolo[3,4-D]pyrimidines and uses thereof” (The Regents of the University of California, priority 2011, dated 2016)

Biological target: T1, RET fusion protein CCDC6-RET (Homo sapiens, UniProt P07949)
T1 construct: endogenous in cells; host or cells: TPC1 thyroid cancer cells; the other entry of the earlier key: CCDC6 (Q16204, Coiled-coil domain-containing protein 6)
T1 sequence (P07949 with tags, fused parts or gaps): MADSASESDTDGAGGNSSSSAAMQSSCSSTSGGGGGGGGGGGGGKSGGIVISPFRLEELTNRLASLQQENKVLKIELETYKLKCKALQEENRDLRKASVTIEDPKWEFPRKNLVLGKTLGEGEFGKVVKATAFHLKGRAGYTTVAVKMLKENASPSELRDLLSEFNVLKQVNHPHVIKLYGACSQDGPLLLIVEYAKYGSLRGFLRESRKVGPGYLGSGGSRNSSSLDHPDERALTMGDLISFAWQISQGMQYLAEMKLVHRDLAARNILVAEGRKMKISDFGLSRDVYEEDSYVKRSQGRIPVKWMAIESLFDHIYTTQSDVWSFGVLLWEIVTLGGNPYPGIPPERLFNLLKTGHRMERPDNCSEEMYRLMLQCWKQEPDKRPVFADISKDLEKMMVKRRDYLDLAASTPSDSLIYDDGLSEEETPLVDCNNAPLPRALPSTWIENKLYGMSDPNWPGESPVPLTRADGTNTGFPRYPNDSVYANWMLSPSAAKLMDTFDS
Experiment: RET fusion dephosphorylation in TPC1 whole cell lysates
Format: cell-based
Protocol: FIG. 24. Whole cell lysates of TPC1 cells were extracted after treatment with AD80 at indicated concentrations and given time points. TPC1 cells were grown in 6 cm dishes at 70-80% confluence in growth media supplemented with 10% FBS. AD80 treatment leads to dephosphorylation of the RET fusion protein at low nanomolar concentrations <10 nM. The inhibition of RET results in dephosphorylation of downstream signaling (PI3K, MAPK).

`CC(C)n1nc(-c2ccc(NC(=O)Nc3cc(C(F)(F)F)ccc3F)cc2)c2c(N)ncnc21` [AD80] was tested, and the “concentration leading to dephosphorylation of the RET fusion protein” value was < 10 nM.
